The NIST ThermoML archive (doi:10.1021/je501106d)

Conditions: for speed of sound: Brillouin scattering; for vapor or sublimation pressure: Closed cell (Static) method

CCCCCCC [heptane]
speed of sound [m/s], Liquid
Conditions	1000 kPa	2500 kPa	4000 kPa	5500 kPa	7000 kPa	8500 kPa
302.15 K	1112.9	1126.4	1139	1152	1163.2	1174.3
318.15 K	1054.1	1066.6	1079	1091	1102	1113
333.15 K	997.8	1010	1022	1034	1045	1057
348.15 K	940.3	952.9	965.3	977.6	989.7	1002
363.15 K	881.6	895.3	908.8	922	934.9	947.6
378.15 K	821.8	837.2	852.2	866.8	881	894.7
393.15 K	760.8	778.7	795.8	812.2	827.9	842.9
408.15 K	698.6	719.6	739.4	758.2	775.8	792.2
418.15 K	656.6	680	701.9	722.4	741.5	759.1
428.15 K	614	640.1	664.4	686.9	707.6	726.4
438.15 K	570.9	600	626.9	651.6	674	694.3
448.15 K	527.2	559.7	589.5	616.6	640.9	662.6
453.15 K	505.2	539.5	570.8	599.1	624.5	647
458.15 K	483.1	519.2	552.1	581.7	608.2	631.4
463.15 K	–	498.9	533.4	564.4	592	616
468.15 K	–	478.5	514.7	547.2	559.8	600.8
473.15 K	–	458	496	530	543.9	570.6
478.15 K	–	437.5	477.4	512	528.1	555.7
483.15 K	–	416.9	458.7	495.7	512.3	540.9
488.15 K	–	396.3	440	478.7	496.7	526.3
493.15 K	–	375.7	421.4	461.7	–	–
498.15 K	–	354.9	402.8	444.8	–	–
503.15 K	–	334.2	384.1	428	–	–
508.15 K	–	313.3	365.5	411.2	–	–
513.15 K	–	292.4	346.9	394.5	–	–
518.15 K	–	271.5	328.3	377.8	–	–
523.15 K	–	–	309.7	361.2	–	–
528.15 K	–	–	291.1	344.6	–	–

Conditions	speed of sound, Gas [m/s]	speed of sound, Liquid [m/s]	vapor or sublimation pressure, Liquid [kPa]
302.15 K	–	1108	12
318.15 K	–	1042	31
333.15 K	–	981.5	50
348.15 K	–	921.1	84
363.15 K	–	861.2	116
378.15 K	–	801.6	152
393.15 K	–	742.3	204
408.15 K	170.3	683.1	286
418.15 K	168.1	643.5	352
428.15 K	165.9	603.9	441
438.15 K	163.4	564	535
448.15 K	160.5	523.9	654
453.15 K	158.8	503.6	711
458.15 K	157	483.3	780
463.15 K	155	462.8	853
468.15 K	152.8	442.2	935
473.15 K	150.3	421.3	1022
478.15 K	147.5	400.3	1114
483.15 K	144.5	379	1203
488.15 K	141.2	357.4	1307
493.15 K	137.5	335.4	1409
498.15 K	133.4	313	1532
503.15 K	129	290.1	1649
508.15 K	124.1	266.6	1781
513.15 K	118.7	242.4	1910
518.15 K	112.8	217.3	2049
523.15 K	106.4	190.9	2201
528.15 K	99.37	162.7	2358
533.15 K	91.71	131.9	2519
536.15 K	86.78	111.1	2630
